Test results: the NIST ThermoML archive (doi:10.1016/j.fluid.2006.01.008)
± gives the expanded uncertainty stated by the source.

Key:
[1] = 298.15 K, 101.33 kPa, Liquid; for viscosity: Capillary tube (Ostwald / Ubbelohde) method; for speed of sound: Sing-around technique in a fixed-path interferometer; for mass density: Vibrating tube method
[2] = refractive index (Na D-line) (dimensionless); conditions: 298.15 K; 101.33 kPa; Liquid; Standard Abbe refractometry
[3] = xn = mol fraction of the nth substance listed; conditions: 298.15 K, 101 kPa, Liquid; for viscosity: Capillary tube (Ostwald / Ubbelohde) method; for speed of sound: Sing-around technique in a fixed-path interferometer; for mass density: Vibrating tube method
[4] = refractive index (Na D-line) (dimensionless); xn = mol fraction of the nth substance listed; conditions: 298.15 K, 101 kPa, Liquid, Standard Abbe refractometry

CCCO [propan-1-ol]
Conditions | mass density [kg/m3] | refractive index | speed of sound [m/s] | viscosity [mPa·s]
[1] | 799.47 ± 0.12 | – | 1207 ± 1 | 1.928 ± 0.032
[2] | – | 1.38306 ± 0.00032 | – | –

CCCCCCCC[n+]1ccn(C)c1.F[B-](F)(F)F [1-methyl-3-octylimidazolium tetrafluoroborate] + CC(C)O
Conditions | mass density, [3] [kg/m3] | refractive index, [4] | speed of sound, [3] [m/s] | viscosity, [3] [mPa·s]
x1 = 0.0459 | 826.83 ± 0.14 | 1.38385 ± 0.00033 | 1170 ± 1 | 2.956 ± 0.073
x1 = 0.0892 | 862.39 ± 0.14 | 1.39059 ± 0.00033 | 1198 ± 1 | 3.955 ± 0.074
x1 = 0.182 | 921.09 ± 0.16 | 1.40147 ± 0.00033 | 1254 ± 1 | 7.053 ± 0.081
x1 = 0.2506 | 953.75 ± 0.17 | 1.40743 ± 0.00034 | 1291 ± 1 | 10.15 ± 0.09
x1 = 0.2965 | 972 ± 0.16 | 1.41077 ± 0.00034 | 1312 ± 1 | 12.88 ± 0.1
x1 = 0.3677 | 996.08 ± 0.17 | 1.41503 ± 0.00034 | 1343 ± 1 | 18.27 ± 0.12
x1 = 0.4214 | 1011.52 ± 0.18 | 1.41781 ± 0.00034 | 1362 ± 1 | 23.79 ± 0.16
x1 = 0.4798 | 1026.24 ± 0.2 | 1.42048 ± 0.00034 | 1381 ± 2 | 31.66 ± 0.2
x1 = 0.5028 | 1031.53 ± 0.2 | 1.42134 ± 0.00035 | 1387 ± 2 | 35.48 ± 0.23
x1 = 0.6166 | 1054.39 ± 0.21 | 1.42547 ± 0.00035 | 1416 ± 2 | 61.95 ± 0.39
x1 = 0.7089 | 1069.7 ± 0.23 | 1.42817 ± 0.00035 | 1437 ± 2 | 96.3 ± 1.2
x1 = 0.7558 | 1076.59 ± 0.24 | 1.42938 ± 0.00036 | 1446 ± 2 | 120.5 ± 1.9
x1 = 0.8697 | 1091.33 ± 0.27 | 1.43182 ± 0.00036 | 1467 ± 2 | 202.6 ± 5

CCCCCCCC[n+]1ccn(C)c1.F[B-](F)(F)F [1-methyl-3-octylimidazolium tetrafluoroborate] + CO
Conditions | mass density, [3] [kg/m3] | refractive index, [4] | speed of sound, [3] [m/s] | viscosity, [3] [mPa·s]
x1 = 0.0495 | 869.02 ± 0.11 | 1.35534 ± 0.00032 | 1188 ± 1 | 0.981 ± 0.071
x1 = 0.0979 | 921.23 ± 0.11 | 1.3733 ± 0.00032 | 1243 ± 1 | 1.622 ± 0.071
x1 = 0.1997 | 986.4 ± 0.13 | 1.39501 ± 0.00032 | 1323 ± 1 | 3.85 ± 0.074
x1 = 0.2859 | 1018.55 ± 0.13 | 1.40551 ± 0.00033 | 1366 ± 1 | 7.131 ± 0.081
x1 = 0.3648 | 1038.89 ± 0.14 | 1.41222 ± 0.00033 | 1394 ± 1 | 11.81 ± 0.1
x1 = 0.4461 | 1054.52 ± 0.16 | 1.41738 ± 0.00033 | 1416 ± 1 | 18.9 ± 0.13
x1 = 0.4922 | 1061.78 ± 0.17 | 1.41982 ± 0.00034 | 1426 ± 1 | 24.16 ± 0.16
x1 = 0.5121 | 1064.62 ± 0.17 | 1.42076 ± 0.00034 | 1430 ± 1 | 27.22 ± 0.18
x1 = 0.5709 | 1072.21 ± 0.18 | 1.42339 ± 0.00034 | 1440 ± 1 | 38.28 ± 0.24
x1 = 0.5972 | 1075.25 ± 0.18 | 1.42443 ± 0.00034 | 1445 ± 2 | 44.63 ± 0.28
x1 = 0.6485 | 1080.67 ± 0.2 | 1.42629 ± 0.00035 | 1452 ± 2 | 57.72 ± 0.33
x1 = 0.785 | 1092.37 ± 0.24 | 1.43029 ± 0.00035 | 1469 ± 2 | 123.9 ± 2
x1 = 0.9049 | 1100.21 ± 0.28 | 1.43284 ± 0.00036 | 1482 ± 2 | 228.6 ± 6.1

CC(C)O [propan-2-ol]
Conditions | mass density [kg/m3] | refractive index | speed of sound [m/s] | viscosity [mPa·s]
[1] | 780.95 ± 0.15 | – | 1140 ± 1 | 2.054 ± 0.013
[2] | – | 1.3752 ± 0.00033 | – | –

CCCCCCCC[n+]1ccn(C)c1.F[B-](F)(F)F [1-methyl-3-octylimidazolium tetrafluoroborate]
Conditions | mass density [kg/m3] | refractive index | speed of sound [m/s] | viscosity [mPa·s]
[1] | 1105.3 ± 0.32 | – | 1491 ± 2 | 359.9 ± 12
[2] | – | 1.43422 ± 0.00037 | – | –
